Experimental data from patent publication US20220194935A1, “PHENETHYL SUBSTITUTED IMIDAZO[4,5-C]QUINOLINE COMPOUNDS WITH AN N-1 BRANCHED GROUP” (3M INNOVATIVE PROPERTIES COMPANY, priority 2019, published 2022).

Tested on: Human peripheral blood mononuclear cells (PBMC)
Experiment: Cytokine Induction in Human Cells (PBMC), minimum effective concentration
Format: cell-based
Conditions: 21-24 hours, lowest concentration giving at least 2× negative control, tested 0.01-30 micromolar; for MEC to Induce Cytokine, IFN-alpha: ELISA; for MEC to Induce Cytokine, IFN-gamma / MEC to Induce Cytokine, TNF-alpha: multiplex bead assay
Description: Whole blood was obtained from healthy human donors and collected by venipuncture into vacutainer tubes or syringes containing ethylene diamine tetraacetic acid (EDTA). Human peripheral blood mononuclear cells (PBMC) were purified from the whole blood by density gradient centrifugation. Histopaque 1077 (15 mL, Sigma, St. Louis, Mo.) was transferred to 6×50 mL sterile polypropylene conical tubes. The Histopaque was overlayed with 15-25 mL of blood diluted 1:2 in Hank's Balanced Salts Solution (HBSS) (Gibco, Life Technologies, Grand Island, N.Y.). The tubes were then centrifuged at 1370 revolutions per minute (rpm) for 30 minutes at 20° C., with no brake (400×g, GH 3.8A Rotor).
The interface (buffy coat) containing the PBMC was collected and placed in a new sterile 50 mL conical polypropylene centrifuge tube. The PBMC were mixed with an equal volume of HBSS (about 20 mL from the interface and about 20 mL of HBSS), and then centrifuged at 1090 rpm, 10 minutes, 20° C., with brake (270×g, GH 3.8A Rotor). After completing centrifugation, the cells were resuspended in 2-3mL ACK Red blood cell lysis buffer (ammonium chloride potassium solution, Gibco, Life Technologies) and incubated for 2-5 minutes at 20° C. Next, HBSS (40 mL) was added to the cells, and the sample was centrifuged at 270×g for 10 minutes at 20° C. The supernatant was decanted, and the cell pellet was resuspended in 5 mL AIM V Medium (Gibco, Life Technologies). Cell aggregates and debris were removed by filtering the cell solution through a BD Falcon 70 micron nylon cell strainer (BD Biosciences, San Jose, Calif.).
The number of viable cells was determined by counting with a Miltenyi FACS instrument (Miltenyi Biotec Inc., San Diego, Calif.) or by using a hemacytometer. For determining cell viability with a hemacytometer, the cells were diluted 1/10 in 0.4% trypan blue and HBSS (specifically, 50 microliter of trypan blue +40 microliter of HBSS +10 microliter of cell solution were added to a microfuge tube and mixed). Ten microliters of the diluted cells were then applied to the hemacytometer, and the number of viable PBMC were determined by microscopy.
The PBMC sample was then resuspended in 96-well plates at a concentration of 8×10^5 cells/well in 0.1 mL of AIM-V medium. Each compound was solubilized in dimethyl sulfoxide (DMSO) to create a 3 mM stock solution. The stock solution was then further diluted with AIM-V medium to prepare the serial dilutions. The diluted compound (100 microliters) was then transferred to the PBMCs to produce testing sets with final compound concentrations of 30, 10, 3.3, 1.1, 0.37, 0.12, 0.04, 0.01 micromolar. The plates also had both positive and negative controls. The negative control wells contained only AIM-V medium with no example compound. The positive control wells contained a control set of imiquimod serially diluted to concentrations of 30, 10, 3.3, 1.1, 0.37, 0.12, 0.04, 0.01 micromolar. The concentrations used in the control set were selected to match the concentrations used in the testing set. The plates were then cultured at 37° C./5% CO2 for 21-24 hours. Cell-free supernatants were harvested by centrifuging the 96-well plates at 2100 rpm, 23° C. for 10 minutes. Approximately 160 microliters of the supernatant was then stored in a NUNC 96-well plate, covered with the compression cap and stored at −80° C. until the cytokine analysis was done.
IFN-alpha cytokine levels (picograms/mL) were measured by ELISA (human IFN-alpha, pan specific, Mabtech, Cincinnati, Ohio). IFN-gamma and TNF-alpha levels (picograms/mL) were measured by multiplex bead assay (magnetic beads, R & D Systems, Minneapolis, Minn.) according to the manufacturer's instructions.
Specifically, the minimum effective concentration of each compound (micromolar) was determined as the lowest concentration of the compound that induced a measured cytokine response at a level ([…]) that was at least 2× greater than that observed with the negative control wells.

SMILES	MEC to Induce Cytokine, IFN-alpha [µM]	MEC to Induce Cytokine, IFN-gamma [µM]	MEC to Induce Cytokine, TNF-alpha [µM]
Nc1nc2ccccc2c2c1ncn2CCc1ccccc1 [Comparative Example 1, 1-phenethyl-1H-imidazo[4,5-c]quinolin-4-amine, reference compound]	1.1	>30	1.1
C[C@H](Cc1ccccc1)n1cnc2c(N)nc3ccccc3c21 [Example 1, 1-[(1R)-1-methyl-2-phenyl-ethyl]imidazo[4,5-c]quinolin-4-amine]	0.37	1.1	0.12
CCCC[C@H](Cc1ccccc1)n1cnc2c(N)nc3ccccc3c21 [Example 2, 1-[(1R)-1-benzylpentyl]imidazo[4,5-c]quinolin-4-amine]	≤0.01	≤0.01	≤0.01
COC[C@@H](Cc1ccccc1)n1cnc2c(N)nc3ccccc3c21 [Example 3, 1-[(1R)-1-benzyl-2-methoxy-ethyl]imidazo[4,5-c]quinolin-4-amine]	1.1	>30	1.1
CCOC[C@@H](Cc1ccccc1)n1cnc2c(N)nc3ccccc3c21 [Example 4, 1-[(1R)-1-benzyl-2-ethoxy-ethyl]imidazo[4,5-c]quinolin-4-amine]	0.37	>30	0.37
COC[C@H](Cc1ccccc1)n1cnc2c(N)nc3ccccc3c21 [Example 5, 1-[(1S)-1-benzyl-2-methoxy-ethyl]imidazo[4,5-c]quinolin-4-amine]	≤0.01	≤0.01	≤0.01
CCOC[C@H](Cc1ccccc1)n1cnc2c(N)nc3ccccc3c21 [Example 6, 1-[(1S)-1-benzyl-2-ethoxy-ethyl]imidazo[4,5-c]quinolin-4-amine]	≤0.01	≤0.01	≤0.01
CCCCOc1ccc(C[C@@H](CCCC)n2cnc3c(N)nc4ccccc4c32)cc1 [Example 7, 1-[(1R)-1-[(4-butoxyphenyl)methyl]pentyl]imidazo[4,5-c]quinolin-4-amine]	≤0.01	≤0.01	≤0.01
